This is an account of results in patent publication US12090158B2, “Medicine for diabetic peripheral neuropathy” (NIPPON CHEMIPHAR CO., LTD., priority 2018, dated 2024).

For series [1], the system named is STZ-induced diabetic neuropathy model rat. Description: STZ-induced diabetic neuropathy model rat, von Frey up-down stimulation method, 50% escape response threshold. Format: in vivo. The settings on record: oral, compared with STZ control group. How it is done: As one embodiment, the study was performed by administering the compound of the present invention to an STZ-induced diabetic neuropathy model rat, then giving a stimulus thereto by an up-down stimulation method, and calculating a 50% escape response threshold.
A model was prepared by intravenously administering STZ as a diabetes-inducing substance to a rat. In a test, an animal that had developed diabetic neuropathy 35 days after STZ administration was used.
On the day before administration of STZ and the day before administration of a test substance, about 100 μL of blood was collected from the tail vein using a winged injection needle equipped with a heparin-treated capillary. The obtained blood was centrifuged with a centrifuge [centrifugation conditions: 4° C., 3,000 rpm (×2,150 g), 15 min], and then plasma was obtained. The blood glucose level of the obtained plasma was measured using a hexokinase G-6-PDH method using an automatic biochemical analyzer. Note that the amount of the obtained plasma was very small, and therefore the measurement was performed by diluting the plasma 5 times with physiological saline. […]
35 days after administration of STZ, before administration, a 50% escape response threshold was measured, and the animals were divided into groups each including two animals such that the groups had the same average of escape response thresholds and the same average of body weights (severity of 50% escape response threshold: 8, severity of weight: 2). […]
Pain was evaluated during a pre-breeding period, and 35 days after administration of STZ, before administration of a test substance and one, two, four, and six hours after administration of the test substance. […] From the result, a 50% escape response threshold was calculated by the following method for calculating a 50% escape response threshold (the 50% escape response threshold was rounded off to two decimal places). […]

The test system of series [2] is rats (SD, male). Description: Rota-rod test, effect on motor coordination. The series is classed as in vivo, rat. The settings on record: 60 mg/kg oral once, three hours after administration; for walking duration (time to fall from the rod): 10 rpm, cut-off 120 seconds. On the procedure: As an index for studying a central inhibitory effect and a muscle relaxation effect, an effect on motor coordination was studied using a Rota-rod test.
In each of the groups, the number of samples was 8. Before a test, a rotation speed was set to 10 rpm using a mark on a rotating disk of Rota-rod (47700, UGO BASILE S.R.L.). A rat was gently placed on the rotating rod, and it was confirmed that the rat was placed on the rod stably. Thereafter, time (seconds) for the rat to fall from the rod was recorded. A cut-off value was 120 seconds. Trials were performed before administration of a test substance and three hours after the administration. At each measurement time, trials were performed up to three times. In a case where the cut-off value was reached, 120 seconds was taken as a walking duration at the time. In a case where the cut-off value was not reached in all three trials, an average of the three values was taken as a walking duration at the time.
For orientation: Falling from the rotarod earlier than controls is read as motor impairment.

Regarding `O=C1CC(=O)N(c2ccc(NC(=O)c3ccccc3I)cc2)c2ccc3ccccc3c2N1` [Example 48 (Compound), 5-[4-(2-iodobenzoylamino)phenyl]-1H-naphtho [1,2-b] [1,4]diazepine-2,4 (3H,5H)-dione], the “50% escape response threshold” value in series [1] (3 mg/mL group, two hours and four hours after administration) was “significantly increased”; in series [1] (10 mg/mL group, one hour to four hours after administration) it was “significantly increased”; in series [1] (30 mg/mL group, one hour to four hours after administration), “significantly increased”. The “effect on motor coordination” value in series [2] (Rota-rod) is “no effect on motor coordination”. Moreover, the “walking duration (time to fall from the rod)” value in series [2] turned out to be 120 s.

As for `CC(C)C[C@H](CN)CC(=O)O` [pregabalin, reference compound], the “walking duration (time to fall from the rod)” value in series [2] amounted to 22 ± 5 s.
